Assay results published in PMC8704606, “The Artemiside-Artemisox-Artemisone-M1 Tetrad: Efficacies against Blood Stage P. falciparum Parasites, DMPK Properties, and the Case for Artemiside” (Pharmaceutics, 2021).
Like-named read-outs stand apart in the source and are kept apart here.

How the values were obtained:
[1] = tested on: P. berghei ANKA strain; settings: P. berghei ANKA infected mice; ip 0.66 mg/kg with piperaquine 10 mg/kg; cited from earlier work
[2] = Cytotoxicity (LDH assay) against HepG2 cells; format: cell-based; settings: human, HepG2 cells (hepatocellular carcinoma)
Protocol: Cytotoxicity against mammalian hepatocellular carcinoma cells (HepG2 cells) was determined using the lactate dehydrogenase assay (LDH, Biovision Inc., Milpitas, CA, USA). […] Compound working solutions were prepared from 10 mM stock solutions (100% DMSO) in complete DMEM to a final DMSO (Sigma-Aldrich) conc. of <0.1% (vol/vol). […] Data analysis was performed using GraphPad Prism (version 6) software.

[3] = tested on: asexual blood stages of Pf NF54 (drug sensitive); design: method as in PMID 29866868, PMID 31998692; settings: asexual blood stage Pf NF54, CQ sensitive; SYBR Green I; ± SEM; cited from earlier work
[4] = tested on: late-stage (LG) Pf NF54 gametocytes; design: method as in PMID 29866868; settings: late-stage gametocytes >90% stages IV-V; dose responses obtained at 72 h; ± SEM; cited from earlier work
[5] = tested on: Chinese hamster ovary (CHO) cells; design: method as in PMID 29866868, PMID 31998692; settings: other cell lines including CHO cells; read-out: EC50 cytotoxicity; cited from earlier work
[6] = tested on: asexual blood stages of Pf W2 (drug resistant); design: method as in PMID 29866868, PMID 31998692; settings: cited from earlier work
[7] = Pharmacokinetics and metabolism after iv and po administration; format: in vivo; settings: for half-life: read-out: t½ (converted); for MRT last: read-out: MRT0-last; for AUC(0-t): up to 7 h
Protocol: The plasma concentration-time profiles of the parent compounds and metabolites after administration iv and po to male C57/BL6 mice are presented in Figure 2, Figure 3 and Figure 4. Artemiside was quantifiable up to 24 h in all mice dosed iv and up to 7 h po (lower limit of quantitation LLOQ = 1.6 ng/mL or 0.004 μM) (Figure 2). […] For both artemiside and artemisox, the metabolite artemisone was quantifiable up to 3 h in both the po and iv groups (Figure 2 and Figure 3). Thereby it is confirmed that artemiside is rapidly converted via artemisox into artemisone. Artemisone itself was quantifiable up to three hours post dose (Figure 4). The mean circulating concentrations for the compounds and their metabolites are presented in Table S3a–f in the Supplementary Material 1. The metabolite M1 was also detected upon administration of artemiside, artemisox, and artemisone, but it was not quantified here; chromatograms indicating the presence of M1 are illustrated in Figure S3a–c in the Supplementary Material 1. In addition, the plasma concentration-time curves for artemiside and its metabolites artemisone and M1 following iv and po dosing in the same murine model are presented and discussed in detail elsewhere (cf. Figure 4 in reference).
All work was conducted with prior approval of the animal ethics committee of the University of Cape Town in accordance with the South African National Standards for the Care and Use of Animals for Scientific Purposes and guidelines from the South African Department of Health. The requirements and methods for the pharmacokinetics in vivo involving po and iv drug administration, sample extraction, analyses of samples by LC-MS/MS, and data analyses are described elsewhere. For the animal experiments and formulations, the compounds were dissolved in a 10:60:30 mixture of N,N-dimethylacetamide-polypropylene glycol-polyethylene glycol for intravenous dosing (iv) at 5 mg/kg. For the oral dose (po), compounds were individually dosed as a suspension in 0.5% (w/v) hydroxypropylmethylcellulose in water with 0.2% Tween80 at 50 mg/kg to male C57/BL6 mice (n = 3 for each group). For PK sampling, blood samples were collected at predetermined times (0.08, 0.25, 0.5, 1, 3, 5, 7, and 24 h) for both po and iv dosing via tail bleeding into heparinized tubes, centrifuged, and the plasma samples were stored at −80 °C until extraction. For preparation of samples, the frozen plasma samples were thawed and 15 μL was extracted by liquid–liquid extraction using a universal buffer (pH8) containing 10 ng/mL of the internal standard and ethyl acetate, and the extract was vortexed and centrifuged. Calibration standards and quality controls were extracted following the same procedure. Supernatants were dried down, reconstituted, and injected onto the column for LC-MS/MS analysis using an AB SCIEX 5500 QTRAP instrument coupled to an Agilent 1260 HPLC detection system as previously described.

[8] = tested on: asexual blood stages of Pf K1 (drug resistant); design: method as in PMID 29866868, PMID 31998692; settings: cited from earlier work
[9] = male, C57/BL6, mouse, plasma, iv 5 mg/kg, parent drug
[10] = male, C57/BL6, mouse, plasma, po 50 mg/kg, parent drug

Q: Which results are given for `C[C@H]1[C@H](N2CCS(=O)(=O)CC2)O[C@@H]2O[C@@]3(C)CC[C@H]4[C@H](C)CC[C@@H]1[C@@]24OO3` [Artemisone 7, Artemisone]?
A: outcome of combination with piperaquine [1]: recrudescence with eventual mortality was observed; IC50 at 24 h [2]: > 50000 nM; IC50 [3]: 1.2 ± 0.4 nM; IC50 [4]: 42.4 ± 3.3 nM; EC50 [5]: > 241000 nM; IC50 ([6]; asexual blood stage Pf W2, multidrug resistant, SYBR Green I, ± SEM): 1.6 ± 0.4 nM; RI = IC50 W2/IC50 NF54 [6]: 1.36; Mean iv circulating concentration ([7]; 5 h after iv 5 mg/kg artemisone 7): blq; Mean iv circulating concentration ([7]; 5 h after iv 5 mg/kg artemisox 6): blq; Mean po circulating concentration ([7]; 5 h after po 50 mg/kg artemiside 5): blq; Mean po circulating concentration ([7]; 5 h after po 50 mg/kg artemisone 7): blq; Mean iv circulating concentration ([7]; 7 h after iv 5 mg/kg artemiside 5): blq; Mean iv circulating concentration ([7]; 7 h after iv 5 mg/kg artemisone 7): blq; Mean iv circulating concentration ([7]; 7 h after iv 5 mg/kg artemisox 6): blq; Mean po circulating concentration ([7]; 7 h after po 50 mg/kg artemiside 5): blq; Mean po circulating concentration ([7]; 7 h after po 50 mg/kg artemisone 7): blq; Mean po circulating concentration ([7]; 7 h after po 50 mg/kg artemisox 6): blq; Mean iv circulating concentration ([7]; 24 h after iv 5 mg/kg artemiside 5): blq; Mean iv circulating concentration ([7]; 24 h after iv 5 mg/kg artemisone 7): blq; Mean iv circulating concentration ([7]; 24 h after iv 5 mg/kg artemisox 6): blq; Mean po circulating concentration ([7]; 24 h after po 50 mg/kg artemiside 5): blq; Mean po circulating concentration ([7]; 24 h after po 50 mg/kg artemisone 7): blq; Mean po circulating concentration ([7]; 24 h after po 50 mg/kg artemisox 6): blq; quantifiable up to, post dose ([7]; artemisone itself dosed, iv 5 mg/kg and po 50 mg/kg (Figure 4)): up to three; t½ ([7]; iv 5 mg/kg, parent drug, mean ± SD, 5 mg/kg): 23.4 ± 4.8 min; concentration at 0.08 h ([7]; male, C57/BL6, mouse, plasma, iv, 5 mg/kg, 0.08 h after iv 5 mg/kg artemiside 5, read-out: Mean iv circulating concentration): 117 nM; concentration at 0.08 h ([7]; male, C57/BL6, mouse, plasma, iv, 5 mg/kg, 0.08 h after iv 5 mg/kg artemisone 7, read-out: Mean iv circulating concentration): 3860 nM; concentration at 0.08 h ([7]; male, C57/BL6, mouse, plasma, iv, 5 mg/kg, 0.08 h after iv 5 mg/kg artemisox 6, read-out: Mean iv circulating concentration): 1110 nM; concentration at 0.25 h ([7]; male, C57/BL6, mouse, plasma, iv, 5 mg/kg, 0.25 h after iv 5 mg/kg artemiside 5, read-out: Mean iv circulating concentration): 247 nM; concentration at 0.25 h ([7]; male, C57/BL6, mouse, plasma, iv, 5 mg/kg, 0.25 h after iv 5 mg/kg artemisone 7, read-out: Mean iv circulating concentration): 2510 nM; concentration at 0.25 h ([7]; male, C57/BL6, mouse, plasma, iv, 5 mg/kg, 0.25 h after iv 5 mg/kg artemisox 6, read-out: Mean iv circulating concentration): 1400 nM; concentration at 0.5 h ([7]; male, C57/BL6, mouse, plasma, iv, 5 mg/kg, 0.5 h after iv 5 mg/kg artemiside 5, read-out: Mean iv circulating concentration): 270 nM; concentration at 0.5 h ([7]; male, C57/BL6, mouse, plasma, iv, 5 mg/kg, 0.5 h after iv 5 mg/kg artemisone 7, read-out: Mean iv circulating concentration): 1720 nM; concentration at 0.5 h ([7]; male, C57/BL6, mouse, plasma, iv, 5 mg/kg, 0.5 h after iv 5 mg/kg artemisox 6, read-out: Mean iv circulating concentration): 1250 nM; concentration at 1 h ([7]; male, C57/BL6, mouse, plasma, iv, 5 mg/kg, 1 h after iv 5 mg/kg artemiside 5, read-out: Mean iv circulating concentration): 160 nM; concentration at 1 h ([7]; male, C57/BL6, mouse, plasma, iv, 5 mg/kg, 1 h after iv 5 mg/kg artemisone 7, read-out: Mean iv circulating concentration): 831 nM; concentration at 1 h ([7]; male, C57/BL6, mouse, plasma, iv, 5 mg/kg, 1 h after iv 5 mg/kg artemisox 6, read-out: Mean iv circulating concentration): 659 nM; concentration at 3 h ([7]; male, C57/BL6, mouse, plasma, iv, 5 mg/kg, 3 h after iv 5 mg/kg artemiside 5, read-out: Mean iv circulating concentration): 12 nM; concentration at 3 h ([7]; male, C57/BL6, mouse, plasma, iv, 5 mg/kg, 3 h after iv 5 mg/kg artemisone 7, read-out: Mean iv circulating concentration): 28 nM; concentration at 3 h ([7]; male, C57/BL6, mouse, plasma, iv, 5 mg/kg, 3 h after iv 5 mg/kg artemisox 6, read-out: Mean iv circulating concentration): 7 nM; concentration at 5 h ([7]; male, C57/BL6, mouse, plasma, iv, 5 mg/kg, 5 h after iv 5 mg/kg artemiside 5, read-out: Mean iv circulating concentration): 5 nM; half-life ([7]; male, C57/BL6, mouse, plasma, iv, 5 mg/kg, iv 5 mg/kg, parent drug, mean ± SD): 24 min; concentration at 0.08 h ([7]; male, C57/BL6, mouse, plasma, po, 50 mg/kg, 0.08 h after po 50 mg/kg artemiside 5, read-out: Mean po circulating concentration): 1000 nM; concentration at 0.08 h ([7]; male, C57/BL6, mouse, plasma, po, 50 mg/kg, 0.08 h after po 50 mg/kg artemisone 7, read-out: Mean po circulating concentration): 1630 nM; concentration at 0.08 h ([7]; male, C57/BL6, mouse, plasma, po, 50 mg/kg, 0.08 h after po 50 mg/kg artemisox 6, read-out: Mean po circulating concentration): 3640 nM; concentration at 0.25 h ([7]; male, C57/BL6, mouse, plasma, po, 50 mg/kg, 0.25 h after po 50 mg/kg artemiside 5, read-out: Mean po circulating concentration): 1390 nM; concentration at 0.25 h ([7]; male, C57/BL6, mouse, plasma, po, 50 mg/kg, 0.25 h after po 50 mg/kg artemisone 7, read-out: Mean po circulating concentration): 1520 nM; concentration at 0.25 h ([7]; male, C57/BL6, mouse, plasma, po, 50 mg/kg, 0.25 h after po 50 mg/kg artemisox 6, read-out: Mean po circulating concentration): 3530 nM; concentration at 0.5 h ([7]; male, C57/BL6, mouse, plasma, po, 50 mg/kg, 0.5 h after po 50 mg/kg artemiside 5, read-out: Mean po circulating concentration): 1790 nM; concentration at 0.5 h ([7]; male, C57/BL6, mouse, plasma, po, 50 mg/kg, 0.5 h after po 50 mg/kg artemisone 7, read-out: Mean po circulating concentration): 1140 nM; concentration at 0.5 h ([7]; male, C57/BL6, mouse, plasma, po, 50 mg/kg, 0.5 h after po 50 mg/kg artemisox 6, read-out: Mean po circulating concentration): 3690 nM; concentration at 1 h ([7]; male, C57/BL6, mouse, plasma, po, 50 mg/kg, 1 h after po 50 mg/kg artemiside 5, read-out: Mean po circulating concentration): 1670 nM; concentration at 1 h ([7]; male, C57/BL6, mouse, plasma, po, 50 mg/kg, 1 h after po 50 mg/kg artemisone 7, read-out: Mean po circulating concentration): 357 nM; concentration at 1 h ([7]; male, C57/BL6, mouse, plasma, po, 50 mg/kg, 1 h after po 50 mg/kg artemisox 6, read-out: Mean po circulating concentration): 3200 nM; concentration at 3 h ([7]; male, C57/BL6, mouse, plasma, po, 50 mg/kg, 3 h after po 50 mg/kg artemiside 5, read-out: Mean po circulating concentration): 179 nM; concentration at 3 h ([7]; male, C57/BL6, mouse, plasma, po, 50 mg/kg, 3 h after po 50 mg/kg artemisone 7, read-out: Mean po circulating concentration): 12 nM; concentration at 3 h ([7]; male, C57/BL6, mouse, plasma, po, 50 mg/kg, 3 h after po 50 mg/kg artemisox 6, read-out: Mean po circulating concentration): 48 nM; concentration at 5 h ([7]; male, C57/BL6, mouse, plasma, po, 50 mg/kg, 5 h after po 50 mg/kg artemisox 6, read-out: Mean po circulating concentration): 7 nM; half-life ([7]; male, C57/BL6, mouse, plasma, po, 50 mg/kg, po 50 mg/kg, parent drug, mean ± SD): 23.4 ± 3 min; clearance ([7]; male, C57/BL6, mouse, plasma, iv 5 mg/kg): 88.3 mL/min/kg; AUC(0-inf) [7, 9]: 2.5 ± 0.6 µM·h; MRT last ([7]; male, C57/BL6, mouse, plasma, iv 5 mg/kg, parent drug, 0-last up to 7 h): 33.6 ± 4.2 min; AUC(0-t) [7, 9]: 2.4 ± 0.6 µM·h; Vd ([7]; male, C57/BL6, mouse, plasma, iv 5 mg/kg, read-out: Vss): 3 ± 0.5 L/kg; bioavailability ([7]; male, C57/BL6, mouse, plasma, po 50 mg/kg vs iv 5 mg/kg, read-out: F (bioavailability)): 4.9 ± 1.7%; Cmax [7, 10]: 1700 ± 400 nM; MRT last [7, 10]: 32.4 ± 7.8 min; AUC(0-t) [7, 10]: 1.1 ± 0.1 µM·h; MAT (mean absorption time = MRTpo–MRTiv) ([7]; po 50 mg/kg): 0 h; IC50 ([8]; asexual blood stage Pf K1, multidrug resistant, SYBR Green I, ± SEM): 1.01 ± 0.19 nM; RI (resistance index) = IC50 K1/IC50 NF54 [8]: 0.85
